Assay results as given in patent US20140088052A1, “CHALCONE DERIVATIVES AS NRF2 ACTIVATORS” (THE JOHNS HOPKINS UNIVERSITY, priority 2011, published 2014).
Where two headings read alike, the source gives them in different places.

How the values were obtained:
Assay type in all cases: cell-based, human
Beas-2B cells = experiment: Cell viability / cytotoxicity (MTT assay) in Beas-2B cells; details: 24 h, DMSO = 100
Method: Concurrent with the gene expression analysis, the cytotoxicity of the chalcone derivatives was determined using the MTT assay.
Mad. Chem. 2007, 15, 2952-2962. […] Four hours before the end of incubation, the medium was removed and 100 μL of MTT (5 mg/mL in serum free medium) was added to each well. The MTT was removed after 4 h, cells were washed with PBS, and 100 μL DMSO was added to each well to dissolve the water-insoluble MTT-formazan crystals. The absorbance was recorded at 570 nm in a plate reader (Molecular Devices, Sunnyvale, Calif.).

Nrf2 [1] = experiment: Expression of Nrf2-regulated genes GCLM and NQO1 by qRT-PCR in Beas-2B cells (screen); details: Homo sapiens, BEAS-2B, 16 h
Method: To investigate the potency of the presently disclosed chalcone derivatives to activate Nrf2, the expression of antioxidant genes, GCLM and NADPH-NQO1, two well characterized transcriptional targets of Nrf2, were measured as surrogate markers. By “marker” is meant any protein or polynucleotide having an alteration in expression level or activity that is associated with a disease, disorder, or condition. It has been previously shown that oxidants or small molecule activators of Nrf2 increase GCLM and NQO1 in cells or tissues of wild-type, but not in Nrf2-deficient mice. Osburn, W. O., et al., Genetic or pharmacologic amplification of Nrf2 signaling inhibits acute inflammatory liver injury in mice. Toxicol. Sci. 2008, 104(1), 218-227. […]
RNA was isolated and gene expression was measured after 16 h.
Total RNA was extracted from cells/tissue using Qiagen RNeasy kit (Qiagen Corporation, Valencia, Calif.) and reverse transcription was performed by using random hexamers and MultiScribe reverse transcriptase according to the manufacturer's recommendations (Applied Biosystems, Foster City, Calif., USA). Quantitative real-time RT-PCR analyses of Nrf2, NQO1, HO1, and GCLM were performed by using Assay-on-Demand primers and probe sets from Applied Biosystems. Assays were performed using the ABI 7000 Taqman system (Applied Biosystems, Foster City, Calif.). β-actin was used for normalization.

Nrf2 [2] = experiment: Nrf2-regulated gene expression with or without N-acetyl-cysteine in Beas-2B cells; details: NAC 10 mM alone, 24 h
Method: Cells were harvested 24 h after the treatment and the Nrf2-driven expression of NQO1, HO-1, and GCLM was quantified. β-actin was used for normalization. Data are representative of three independent experiments. Values shown are mean±SD of triplicate wells (P≦0.05);
The activation of Nrf2 by various electrophiles and compounds that are Michael acceptors is attributed to changes in ROS production and or redox environment and or direct cysteine modification in Keap1. Nguyen, T., et al., The Nrf2-antioxidant response element signaling pathway and its activation by oxidative stress. J. Biol. Chem. 2009, 284, 13291-13295; McMahon, M., et al., Keap1 perceives stress via three sensors for the endogenous signaling molecules nitric oxide, zinc, and alkenals. Proc. Natl. Acad. Sci. U.S.A. 2010, 107, 18838-18843. Whether 2b activates Nrf2 by generating ROS or redox changes also was examined.

[3] = DMSO = 1.0 (Table 2), read-out: Relative Fold Change GCLM
[4] = DMSO = 1.0 (Table 2), read-out: Relative Fold Change NQO1
[5] = DMSO = 1 (Table 3), read-out: Relative Fold Change GCLM
[6] = DMSO = 1 (Table 3), read-out: Relative Fold Change NQO1

Compound	% Cell Viability (Beas-2B cells)	fold induction at 10 µM (Nrf2 [1]; [3])	fold induction at 10 µM (Nrf2 [1]; [4])	fold induction at 10 µM (Nrf2 [1]; [5])	fold induction at 10 µM (Nrf2 [1]; [6])	induction of Nrf2-regulated genes, NAC alone (Nrf2 [2])
COc1ccc(C(=O)/C=C/c2ccccc2C(F)(F)F)c(OC)c1 [Compound 2e, (E)-1-(2,4-dimethoxyphenyl)-3-(2-(trifluoromethyl)phenyl)prop-2-en-1-one]	105%	5.4	4.5	5.4	4.5	–
COc1cccc(OC)c1C(=O)/C=C/c1ccccc1C(F)(F)F [Compound 2f, (E)-1-(2,6-dimethoxyphenyl)-3-(2-(trifluoromethyl)phenyl)prop-2-en-1-one]	101.1%	5.7	5.3	5.7	5.3	–
COc1cc(OC)cc(C(=O)/C=C/c2ccccc2C(F)(F)F)c1 [Compound 2i, (E)-1-(3,5-dimethoxyphenyl)-3-(2-(trifluoromethyl)phenyl)prop-2-en-1-one]	87.1%	4	3.7	4	3.7	–
COc1ccc(C(=O)/C=C/c2ccccc2C(F)(F)F)c(OC)c1OC [Compound 2k, (E)-1-(2,3,4-trimethoxyphenyl)-3-(2-(trifluoromethyl)phenyl)prop-2-en-1-one]	101.6%	5.4	4.1	5.4	4.1	–
COc1cc(OC)c(C(=O)/C=C/c2ccccc2C(F)(F)F)c(OC)c1 [Compound 2l, (E)-1-(2,4,6-trimethoxyphenyl)-3-(2-(trifluoromethyl)phenyl)prop-2-en-1-one]	145.3%	4.4	4.3	4.4	4.3	–
COc1cccc(C(=O)/C=C/c2cccc(C(F)(F)F)c2)c1 [Compound 3c, (E)-1-(3-methoxyphenyl)-3-(3-(trifluoromethyl)phenyl)prop-2-en-1-one]	95.3%	4.6	3.5	4.6	3.5	–
COc1cc(OC)cc(C(=O)/C=C/c2cccc(C(F)(F)F)c2)c1 [Compound 3i, (E)-1-(3,5-dimethoxyphenyl)-3-(3-(trifluoromethyl)phenyl)prop-2-en-1-one]	108.2%	3.8	3.9	3.8	3.9	–
COc1ccccc1C(=O)/C=C/c1ccc(C(F)(F)F)cc1 [Compound 4b, (E)-1-(2-methoxyphenyl)-3-(4-(trifluoromethyl)phenyl)prop-2-en-1-one]	91%	4.3	5.4	4.3	5.4	–
COc1ccc(C(=O)/C=C/c2ccc(C(F)(F)F)cc2)cc1 [Compound 4d, (E)-1-(4-methoxyphenyl)-3-(4-(trifluoromethyl)phenyl)prop-2-en-1-one]	104.1%	3.5	4.6	3.5	4.6	–
COc1ccc(C(=O)/C=C/c2ccc(C(F)(F)F)cc2)c(OC)c1 [Compound 4e, (E)-1-(2,4-dimethoxyphenyl)-3-(4-(trifluoromethyl)phenyl)prop-2-en-1-one]	92.6%	5	4.8	5	4.8	–
COc1ccc(OC)c(C(=O)/C=C/c2ccc(C(F)(F)F)cc2)c1 [Compound 4g]	91.6%	4.1	4	4.1	4	–
COc1ccc(C(=O)/C=C/c2ccc(C(F)(F)F)cc2)c(OC)c1OC [Compound 4j]	100.1%	4.1	3.9	4.1	3.7	–
COc1cccc(OC)c1C(=O)/C=C/c1ccccc1[N+](=O)[O-] [Compound 5f]	75.8%	4.1	3.7	4.1	3.7	–
COc1cc(OC)cc(C(=O)/C=C/c2ccccc2[N+](=O)[O-])c1 [Compound 5i]	90.9%	3.4	4.1	3.4	4.1	–
CC(=O)N[C@@H](CS)C(=O)O [NAC, N-acetyl-cysteine, reference compound]	–	–	–	–	–	no induction of Nrf2-regulated genes
C[S+]([O-])CCCCN=C=S (stereo not shown) [Sulforaphane, reference compound]	97.3%	2.7	3.6	2.7	3.6	–
